Measurements: patent US10202347B2, “Compound, production method therefor, and use of said compound” (MICROBIAL CHEMISTRY RESEARCH FOUNDATION, priority 2013, dated 2019)

How the values were obtained:
[1] = tested on: human stomach cancer cells MKN-74; test: Anti-cancer activity in vivo, Test Example 2-1: MKN-74 alone, subcutaneous tumor in nude mice; design: species or system BALB/c nu/nu nude mice; settings: intravenous administration at 12.5 mg/kg, FIGS. 1A, 1B
Protocol: BALB/c nu/nu nude mice (female, 5 weeks old, product of Charles River Co.) were bred under the SPF conditions.
Cultured human stomach cancer cells MKN-74 were trypsinized, and the human stomach cancer cells MKN-74 (8×10^6 cells) peeled off from the culture dish were dispersed in 0.3 mL DMEM containing 10% FBS and mixed with 0.5 mL growth factor-reduced Matrigel (product of BD Biosciences Co.).
The above mixed cell liquid (0.1 mL) (cancer cells: 1×10^6 cells) was subcutaneously inoculated to the left groin region of the above mice.
The compound expressed by the Structural Formula (2) or the compound expressed by the Structural Formula (13) was intravenously administered for a predetermined period, and tumor formed under the skin was cut out and measured for weight. Note that, the administration dose of the compound expressed by the Structural Formula (2) or the compound expressed by the Structural Formula (13) was 12.5 mg/kg per administration day.
Also, a tumor volume was calculated from the following formula referring to the above NPL 1. Tumor volume (mm^3)=(major axis×minor axis^2)/2
Note that, as controls, those to which physiological saline (vehicle) was administered instead of the compound expressed by the Structural Formula (2) or the compound expressed by the Structural Formula (13) were tested in the same manner.

[2] = tested on: human stomach cancer cells MKN-74 and normal stromal cells derived from the human stomach, Hs738; test: Anti-cancer activity in vivo, Test Example 2-2: MKN-74 and stromal cells Hs738, subcutaneous tumor in nude mice; design: species or system BALB/c nu/nu nude mice; settings: tumor transplanted together with stromal cells Hs738, intravenous administration at 12.5 mg/kg, FIGS. 1C, 1D
Protocol: A test was performed in the same manner as in Test Example 2-1 except that the use of the human stomach cancer cells MKN-74 alone in Test Example 2-1 was changed to use of the human stomach cancer cells MKN-74 and the normal stromal cells derived from the human stomach, Hs738.
Note that, a cell liquid and inoculation of the cell liquid to mice were as follows.
Cultured human stomach cancer cells MKN-74 and normal stromal cells derived from the human stomach, Hs738 were respectively trypsinized to be peeled off from the culture dishes. The above human stomach cancer cells MKN-74 (8×10^6 cells) and the above normal stromal cells derived from the human stomach, Hs738 (8×10^6 cells) were dispersed in 0.3 mL DMEM containing 10% FBS and mixed with 0.5 mL growth factor-reduced Matrigel (product of BD Biosciences Co.).
The above mixed cell liquid (0.1 mL) (a mixture of cancer cells: 1×10^6 cells, and stromal cells: 1×10^6 cells) was subcutaneously inoculated to the left groin region of the above mice.

| Structure (SMILES) | tumor suppression (tumor volume, tumor weight Day 21) [1] | tumor suppression (tumor volume, tumor weight Day 21) [2] |
| --- | --- | --- |
| CCCCCCCCc1nc2ccccc2c(OCC(=O)O)c1C [Structural Formula (2)] | significant suppression | – |
| CCCCCCCc1c(C)c(=O)c2ccccc2n1CN=C(SC)SC [Structural Formula (13)] | – | significant suppression |
